{
  "source": "patent US7815905B2",
  "about": "“Methods of increasing insulin sensitivity or decreasing insulin secretion by administering corticotropin releasing factor receptor-2 inhibitors” (Research Development Foundation, priority 2006, dated 2010)",
  "key": {"[1]": {"test_system": "isolated rat islets", "test": "Insulin secretion from isolated rat islets", "type": "cell-based", "settings": "exendin-4 10 nM + 8.4 mM glucose; listed as Ast2-B"}, "[2]": {"test_system": "wild type mice", "test": "Glucose tolerance test (GTT) in wild type mice", "type": "in vivo, mouse", "settings": "fasted male wild type mice; 30 μg/kg IP 20 min prior to glucose 2 g/kg", "protocol": "FIG. 1a-f: Metabolic phenotype of Ucn 2 null mice. […] The ability of the Ucn 2 null mice and wild type littermates to handle a glucose load was assessed using a standard glucose tolerance test (see example 1). Fasted male mice were injected intraperitoneally (IP) with glucose (2 g/kg body weight) and blood glucose levels were measured before and at 15, 30, 60, 90 and 120 min following glucose injection. […] Fasted male Ucn 2 null mice were injected IP with saline or with 0.1 μg/kg body weight Ucn 2, 20 min prior to glucose injection (2 g/kg body weight) and blood glucose levels were measured before and at 15, 30, 60 and 90 min following glucose injection. […] Fasted male wild type mice were injected IP with saline or with astressin2B (30 μg/kg body weight), 20 min prior to glucose injection (2 g/kg body weight), and blood glucose levels were measured before and at 15, 30, 60 and 90 min following glucose injection. (d) The enhanced glucose tolerance in the Ucn 2 null mice is not due to increased insulin secretion. Fasted male mice were injected with glucose (3 g/kg body weight, IP) and blood samples were collected at 2, 5, 15 and 30 min following glucose injection and insulin was measured by radioimmunoassay. […] Fasted male mice were injected with insulin (0.75 U/kg body weight, IP) and blood glucose levels were measured before and at 15, 30, 60 and 90 min following insulin injection. […]"}, "[3]": {"target": "T1, CRFR2 (Homo sapiens, UniProt Q13324)", "T1 sequence (Q13324 1-411)": "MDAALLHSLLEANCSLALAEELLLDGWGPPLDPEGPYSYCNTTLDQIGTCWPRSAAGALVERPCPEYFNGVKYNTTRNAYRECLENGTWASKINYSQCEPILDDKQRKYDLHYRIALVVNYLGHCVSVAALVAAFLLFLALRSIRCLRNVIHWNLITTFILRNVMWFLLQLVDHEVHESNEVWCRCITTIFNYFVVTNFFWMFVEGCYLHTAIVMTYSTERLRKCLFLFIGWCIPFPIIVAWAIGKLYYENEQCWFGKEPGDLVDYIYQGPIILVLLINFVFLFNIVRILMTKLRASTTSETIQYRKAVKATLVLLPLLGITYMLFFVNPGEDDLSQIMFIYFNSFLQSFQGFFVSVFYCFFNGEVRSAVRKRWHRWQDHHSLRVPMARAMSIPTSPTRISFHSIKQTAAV", "settings": "Rivier et al. 2002; cited from earlier work"}, "[4]": {"test_system": "male rats", "test": "Glucose induced insulin release in vivo in male rats", "parameters": "species or system rat", "protocol": "FIG. 9a-c: The effects of CRFR2 signaling on insulin secretion. […] Plasma insulin (b) and glucose (c) levels in male rats treated with vehicle or Ast2-B (0.09-9 nmol/kg). *, P<0.05 vs. vehicle.\nIn order to determine whether blocking of CRFR2 function also modulates glucose induced insulin release in vivo, various doses of Ast2-B (0.09-9 nmol/kg) or vehicle were injected intravenously into male rats through a jugular vein cannula 20 min before injection of a glucose (2.8 mmol/kg) bolus."}, "[5]": {"test_system": "isolated rat islets", "test": "Insulin secretion from isolated rat islets", "type": "cell-based", "settings": "isolated rat islets; for insulin secretion induced by 16.8 mM glucose: pretreated", "protocol": "FIG. 4a-b: The effect of CRFR2 antagonist on insulin secretion in isolated rat islets. (a) The effect of astressin2B (Ast2-B) on insulin secretion in response to glucose in isolated rat islets. […] The asterisk indicates a statistically significant difference between results from the control versus Ast2-B. (b) Isolated rat isles were pre-treated with anti-Ucn 3 IgG or control IgG followed by addition of indicated concentration of glucose. Y-axis indicates insulin secretion from the treated islets. The double asterisks indicate a statistically significant difference between the indicated treatments. […]\nTo assess the effect of CRFR2 antagonism on islet cell function secretion of insulin from isolated rat islets was studied. […] Thus, activation of CRFR2 by endogenous ligands is involved in insulin secretion induced by high levels of glucose.\nIn order to determine the role of Ucn 3 in glucose induced insulin secretion, isolated rat islets were pretreated with an anti-Ucn 3 IgG prior to glucose treatment."}, "[6]": {"settings": "Rivier et al., 2003; cited from earlier work"}},
  "note": "“Also recorded” adds a separate entry of the source.",
  "data": [
    {"substance": "astressin2B: CRFR2 selective antagonist; modified sauvagine polypeptide (SEQ ID NO:10), Rivier et al., 2002", "values": [
      {"measurement": "Exendin-4 stimulated insulin release", "setting": "[1]", "value": "greatly attenuated; also recorded: the effect was attenuated"},
      {"measurement": "glucose tolerance test profile", "setting": "[2]", "value": "has CRFR2 antagonist activity; also recorded: mirrors that of Ucn 2 null mice; also recorded: mimics the Ucn 2 mutant mice glucose tolerance test profile"},
      {"measurement": "time of administration needed for CRFR2 antagonist activity", "setting": "[3]", "value": "active when administered concurrently with the CRFR2 agonist"},
      {"measurement": "glucose-induced insulin secretion, highest dose compared to 0.9 nmol/kg", "setting": "[4]; 9 nmol/kg intravenously", "value": "slightly less effective"},
      {"measurement": "plasma glucose levels", "setting": "[4]; 0.09-9 nmol/kg intravenously 20 min before glucose 2.8 mmol/kg bolus", "value": "mirrored the results of insulin"},
      {"measurement": "glucose-induced insulin secretion (plasma insulin)", "setting": "[4]; 0.09-9 nmol/kg intravenously 20 min before glucose 2.8 mmol/kg bolus, listed as Ast2-B", "value": "attenuated glucose-induced insulin secretion in a dose dependent manner; also recorded: attenuates glucose induced insulin secretion"},
      {"measurement": "insulin secretion induced by 16.8 mM glucose", "setting": "[5]", "value": "has CRFR2 antagonist activity"},
      {"measurement": "insulin secretion induced by 16.8 mM glucose", "setting": "[5]; listed as Ast2-B", "value": "significantly attenuated; also recorded: attenuated by Ast2-B in a dose-dependent manner"},
      {"measurement": "insulin secretion induced by 16.8 mM glucose", "setting": "[5]; listed as astressin-2B", "value": "attenuates 16.8 mM glucose-induced insulin secretion in a dose-dependent manner"},
      {"measurement": "insulin release induced by 2.8 mM glucose", "setting": "[5]; 2.8 mM glucose", "value": "did not affect"},
      {"measurement": "insulin secretion induced by 8.4 mM glucose", "setting": "[5]", "value": "did not significantly modify"},
      {"measurement": "insulin secretion induced by 8.4 mM glucose", "setting": "[5]; listed as Ast2-B", "value": "did not affect"},
      {"measurement": "insulin release induced by 10 mM glucose", "setting": "[5]; 10 mM glucose", "value": "did not affect"},
      {"measurement": "crossing of the blood brain barrier", "setting": "[6]", "value": "unlikely to cross the blood brain barrier"}
    ]}
  ]
}
